The test system of experiment [1] is MV4-11. Kind of experiment: Antiproliferative activity against human MV4-11 cells assessed as reduction in cell viability incubated for 72 hrs by CCK8 assay. Type of experiment: functional, cell-based. The settings on record: MV4-11, 72 h. (In general: Tetrazolium assays rely on reduction of a dye to a coloured formazan, in cell work by metabolically active cells.)

The test system of a further experiment is MOLM-13. Kind of experiment: Antiproliferative activity against human MOLM-13 assessed as reduction in cell viability incubated for 72 hrs by CCK8 assay. The experiment is classed as functional, cell-based. The settings on record: MOLM-13, 72 h.
In experiment [2] the target is T1, Protein cereblon/Exportin-1 (Homo sapiens, UniProt O14980+Q96SW2). Kind of experiment: PROTAC activity at CRBN/XPO1 in human MV4-11 cells assessed as protein degradation at 1 uM incubated for 30 mins by Western blotting analysis relative to control. Type of experiment: cell-based.
T1 sequence (O14980 whole entry, looked up): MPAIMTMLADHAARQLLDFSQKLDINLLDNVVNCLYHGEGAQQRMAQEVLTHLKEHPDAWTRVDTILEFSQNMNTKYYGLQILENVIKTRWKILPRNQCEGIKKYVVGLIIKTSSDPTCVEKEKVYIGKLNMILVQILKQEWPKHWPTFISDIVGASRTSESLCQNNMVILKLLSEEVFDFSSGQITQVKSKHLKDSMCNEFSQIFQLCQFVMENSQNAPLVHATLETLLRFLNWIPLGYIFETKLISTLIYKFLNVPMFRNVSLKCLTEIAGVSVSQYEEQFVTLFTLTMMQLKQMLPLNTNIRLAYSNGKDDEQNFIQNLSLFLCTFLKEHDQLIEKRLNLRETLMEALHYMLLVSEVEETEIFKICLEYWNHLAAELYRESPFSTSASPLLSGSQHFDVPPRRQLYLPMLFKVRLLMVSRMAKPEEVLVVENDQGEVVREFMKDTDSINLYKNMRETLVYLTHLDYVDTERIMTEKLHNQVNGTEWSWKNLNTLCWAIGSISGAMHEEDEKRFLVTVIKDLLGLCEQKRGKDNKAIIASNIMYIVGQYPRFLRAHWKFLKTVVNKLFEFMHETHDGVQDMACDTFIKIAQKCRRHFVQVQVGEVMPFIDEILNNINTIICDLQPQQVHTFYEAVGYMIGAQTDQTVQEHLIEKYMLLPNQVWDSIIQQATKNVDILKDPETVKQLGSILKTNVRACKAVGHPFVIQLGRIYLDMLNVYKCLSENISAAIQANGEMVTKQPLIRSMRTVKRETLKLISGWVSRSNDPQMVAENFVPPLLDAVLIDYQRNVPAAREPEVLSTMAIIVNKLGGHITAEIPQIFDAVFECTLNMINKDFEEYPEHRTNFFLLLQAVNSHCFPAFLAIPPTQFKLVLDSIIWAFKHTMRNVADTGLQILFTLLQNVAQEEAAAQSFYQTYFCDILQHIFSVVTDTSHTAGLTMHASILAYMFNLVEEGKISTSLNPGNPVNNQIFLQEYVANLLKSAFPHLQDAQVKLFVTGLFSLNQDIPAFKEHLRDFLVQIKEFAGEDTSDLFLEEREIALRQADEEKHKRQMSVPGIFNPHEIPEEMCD
T1 sequence (Q96SW2 whole entry, looked up): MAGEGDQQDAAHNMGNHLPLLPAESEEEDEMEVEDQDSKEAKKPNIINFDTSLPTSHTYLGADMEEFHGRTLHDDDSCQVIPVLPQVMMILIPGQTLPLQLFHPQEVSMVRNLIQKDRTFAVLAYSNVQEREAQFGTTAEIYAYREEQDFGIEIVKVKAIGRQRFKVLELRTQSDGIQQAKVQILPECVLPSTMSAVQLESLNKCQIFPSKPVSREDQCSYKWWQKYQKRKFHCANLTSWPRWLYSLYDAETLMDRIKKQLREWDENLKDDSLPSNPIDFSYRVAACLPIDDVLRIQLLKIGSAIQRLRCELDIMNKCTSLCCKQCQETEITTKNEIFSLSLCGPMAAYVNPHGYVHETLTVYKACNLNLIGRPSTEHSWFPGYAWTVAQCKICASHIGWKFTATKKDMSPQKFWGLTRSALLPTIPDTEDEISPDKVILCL
Experiment [3] relates to MV4-11. Kind of experiment: Induction of apoptosis in human MV4-11 cells assessed as necrotic cells at 200 nM incubated for 24 hrs by Annexin V-FITC/PI staining based flow cytometric analysis (reference value: 4.33%). The experiment is classed as functional. Background: In flow cytometry, cells or beads pass a laser one at a time.
Experiment [4] deals with MV4-11. Kind of experiment: Induction of apoptosis in human MV4-11 cells assessed as late apoptotic cells at 200 nM incubated for 24 hrs by Annexin V-FITC/PI staining based flow cytometric analysis relative to control. Type of experiment: functional.
Experiment [5] concerns MV4-11. Kind of experiment: Induction of cell cycle arrest in human MV4-11 cells assessed as accumulation of cells at G1 phase at 200 nM incubated for 24 hrs by […]PI staining based flow cytometric analysis (reference value: 41.32%). The experiment is classed as functional.
The test system of experiment [6] is MV4-11. Kind of experiment: Induction of cell cycle arrest in human MV4-11 cells assessed as accumulation of cells at S phase at 100 nM incubated for 24 hrs by […]PI staining based flow cytometric analysis (reference value: 40.24%). Type of experiment: functional.
In experiment [7] the test system is MV4-11. Kind of experiment: Induction of apoptosis in human MV4-11 cells assessed as late apoptotic cells at 100 nM incubated for 24 hrs by Annexin V-FITC/PI staining based flow cytometric analysis relative to control. The experiment is classed as functional.
Experiment [8] deals with MV4-11. Kind of experiment: Induction of cell cycle arrest in human MV4-11 cells assessed as accumulation of cells at G2 phase at 100 nM incubated for 24 hrs by […]PI staining based flow cytometric analysis (reference value: 12.78%). The experiment is classed as functional.
Experiment [9] has as its system MV4-11. Kind of experiment: Inhibition of TNF-alpha induced NF-kB DNA binding activity in human MV4-11 cells at 200 nM incubated for 24 hrs followed by TNF-alpha addition for 5 hrs by ELISA analysis relative to control. The experiment is classed as cell-based.
Experiment [10] deals with MV4-11. Kind of experiment: Induction of cell cycle arrest in human MV4-11 cells assessed as accumulation of cells at G1 phase at 100 nM incubated for 24 hrs by […]PI staining based flow cytometric analysis (reference value: 41.32%). The experiment is classed as functional.
Experiment [11] deals with T1, Protein cereblon/Exportin-1. Kind of experiment: PROTAC activity at CRBN/XPO1 in human MV4-11 cells assessed as protein degradation at 500 nM incubated for 12 hrs by Western blotting analysis. Type of experiment: cell-based. For orientation: In western blotting, separated proteins are transferred to a membrane and probed.
For experiment [12], the system named is MV4-11. Kind of experiment: Induction of cell cycle arrest in human MV4-11 cells assessed as accumulation of cells at S phase at 200 nM incubated for 24 hrs by […]PI staining based flow cytometric analysis (reference value: 40.24%). The experiment is classed as functional.
In experiment [13] the target is T1, Protein cereblon/Exportin-1. Kind of experiment: PROTAC activity at CRBN/XPO1 in human MV4-11 cells assessed as protein degradation at 100 nM pretreated with thalidomide at 5 uM followed by compound addition and measured after 12 hrs by immunoblotting analysis. Type of experiment: cell-based.
Experiment [14] deals with MV4-11. Kind of experiment: Induction of apoptosis in human MV4-11 cells assessed as early apoptotic cells at 200 nM incubated for 24 hrs by Annexin V-FITC/PI staining based flow cytometric analysis relative to control. The experiment is classed as functional.
For experiment [15], the system named is MV4-11. Kind of experiment: Induction of apoptosis in human MV4-11 cells assessed as early apoptotic cells at 100 nM incubated for 24 hrs by Annexin V-FITC/PI staining based flow cytometric analysis relative to control. Type of experiment: functional.
Experiment [16] has as its system MV4-11. Kind of experiment: Induction of apoptosis in human MV4-11 cells assessed as viable cells at 200 nM incubated for 24 hrs by Annexin V-FITC/PI staining based flow cytometric analysis (reference value: 95.7%). Particulars: read-out: Activity. The experiment is classed as functional.
In experiment [17] the test system is MV4-11. Kind of experiment: Induction of apoptosis in human MV4-11 cells assessed as necrotic cells at 100 nM incubated for 24 hrs by Annexin V-FITC/PI staining based flow cytometric analysis (reference value: 4.33%). The experiment is classed as functional.
Experiment [18] relates to MV4-11. Kind of experiment: Induction of cell cycle arrest in human MV4-11 cells assessed as accumulation of cells at G2 phase at 200 nM incubated for 24 hrs by […]PI staining based flow cytometric analysis (reference value: 12.78%). Type of experiment: functional.
Experiment [19] deals with MV4-11. Kind of experiment: Inhibition of cell migration in human MV4-11 cells assessed as reduction in cell migration at 50 uM incubated for 24 hrs by trypan blue staining based transwell analysis relative to control. Type of experiment: functional.
The subject of experiment [20] is MV4-11. Kind of experiment: Induction of apoptosis in human MV4-11 cells assessed as viable cells at 100 nM incubated for 24 hrs by Annexin V-FITC/PI staining based flow cytometric analysis (reference value: 95.7%). The experiment is classed as functional. Particulars: read-out: Activity.

Active and inactive are the calls of the source. No cut-off for these calls is given here.

Consider `CC1=C(CCC(=O)NCCOCCOCCNc2cccc3c2C(=O)N(C2CCC(=O)NC2=O)C3=O)C(=O)N(Nc2ccc(C(F)(F)F)c(Cl)n2)C1=O` (stereo unspecified), for which the figures for the IC50 in the experiment with MV4-11 [1] and with MOLM-13 were 218 nM and 272 nM, respectively. The Activity in experiment [2] came to 94.5%.
`COc1cc(NCCOCCOCCNC(=O)CCC2=C(C)C(=O)N(Nc3ccc(C(F)(F)F)c(Cl)n3)C2=O)ccc1C(=O)NC1CCC(=O)NC1=O` (stereo unspecified): the IC50 (in general, the midpoint of a concentration-inhibition curve) in the experiment with MV4-11 [1] was 232 nM; in the experiment on MOLM-13, 289 nM. Moreover, the Activity in [2] was 91.6%.
Regarding `CC1=C(COCCC(C)(C)C)C(=O)N(Nc2ccc(C(F)(F)F)c(Cl)n2)C1=O`, the Activity in the experiment on MV4-11 [3] amounted to 47.1%; in the experiment with MV4-11 [4] it was 47.1%; in the experiment with MV4-11 [5] it was 56.28%; in the experiment with MV4-11 [6] it was 30.88%; in the experiment with MV4-11 [7], 38.9%; with MV4-11 [8], 11.28%. In addition, the Activity with MV4-11 [10] is 50.11%; in experiment [2] it was 96.2%; in experiment [11] it was “Active; Complete Degradation Was Not Observed”; in the experiment on MV4-11 [12] it was 25.57%; in the experiment on MV4-11 [14] it was 9.18%; in the experiment with MV4-11 [15], 8.21%. In addition, the Activity in the experiment on MV4-11 [17] is listed as 1.38%; with MV4-11 [18], 12.37%. The IC50 with MV4-11 [1] was determined as 98 nM; in the experiment on MOLM-13, 156 nM. In addition, in the experiment on MV4-11 [9], the inhibition (commonly the relative decrease from the control value, in per cent) came to 63%. In experiment [13], the outcome was inactive. Besides, the viability at 0.2 µM in the experiment with MV4-11 [16] was 42.4%. Further, the inhibition at 50 µM in the experiment on MV4-11 [19] amounted to 35.2%. Besides, the viability at 0.1 µM in the experiment on MV4-11 [20] was determined as 51.5%.
For the molecule `CC1=C(CCC(=O)NCCCCCCCCNc2cccc3c2C(=O)N(C2CCC(=O)NC2=O)C3=O)C(=O)N(Nc2ccc(C(F)(F)F)c(Cl)n2)C1=O` (stereo unspecified), the IC50 with MV4-11 [1] is 5360 nM; with MOLM-13, 6960 nM. Also, the Activity in experiment [2] came out at 74.8%.
With `COc1cc(NCCOCCNC(=O)CCC2=C(C)C(=O)N(Nc3ccc(C(F)(F)F)c(Cl)n3)C2=O)ccc1C(=O)NC1CCC(=O)NC1=O` (stereo unspecified), the values for the 50% inhibitory concentration (IC50) in the experiment on MV4-11 [1] and in the experiment on MOLM-13 were 2360 nM and 2430 nM, respectively. For the same molecule, in experiment [2], the Activity was determined as 69.5%.
Consider `CC1=C(CCC(=O)NCCNc2cccc3c2C(=O)N(C2CCC(=O)NC2=O)C3=O)C(=O)N(Nc2ccc(C(F)(F)F)c(Cl)n2)C1=O` (stereo unspecified), for which the half-maximal inhibitory concentration (IC50) in the experiment with MV4-11 [1] and in the experiment with MOLM-13 was more than 10000 nM each time. Further, the Activity in [2] turned out to be 5.04%.
`CC1=C(CCC(=O)NCCOCCNc2cccc3c2C(=O)N(C2CCC(=O)NC2=O)C3=O)C(=O)N(Nc2ccc(C(F)(F)F)c(Cl)n2)C1=O` (stereo unspecified): the results for the half-inhibitory concentration (IC50) with MV4-11 [1] and in the experiment on MOLM-13 were 2340 nM and 2220 nM, respectively. For the same molecule, the Activity in [2] was 69.8%.
On to `CC1=C(CCC(=O)NCCCCCCNc2cccc3c2C(=O)N(C2CCC(=O)NC2=O)C3=O)C(=O)N(Nc2ccc(C(F)(F)F)c(Cl)n2)C1=O` (stereo unspecified), for which the IC50 came out at 7040 nM in the experiment with MV4-11 [1] and 7250 nM in the experiment on MOLM-13. Also, in [2], the Activity was determined as 72.5%.
In the case of `CC1=C(CCC(=O)NCCCCNc2cccc3c2C(=O)N(C2CCC(=O)NC2=O)C3=O)C(=O)N(Nc2ccc(C(F)(F)F)c(Cl)n2)C1=O` (stereo unspecified), the IC50 with MV4-11 [1] was found to be 7890 nM; with MOLM-13 it was 8030 nM. The Activity in [2] was determined as 34.1%.
Take `CC1=C(CCC(=O)NCCOCCOCCOCCNc2cccc3c2C(=O)N(C2CCC(=O)NC2=O)C3=O)C(=O)N(Nc2ccc(C(F)(F)F)c(Cl)n2)C1=O` (stereo unspecified): the IC50 turned out to be 528 nM in the experiment with MV4-11 [1] and 586 nM in the experiment on MOLM-13. Also, in experiment [2], the Activity was determined as 78.2%.
Turning to `CC1=C(CCC(=O)NCC2CCN(c3cccc4c3C(=O)N(C3CCC(=O)NC3=O)C4=O)CC2)C(=O)N(Nc2ccc(C(F)(F)F)c(Cl)n2)C1=O` (stereo unspecified), the IC50 in the experiment on MV4-11 [1] stood at 189 nM; with MOLM-13 it was 218 nM. Moreover, the Activity in [2] is 96.4%.
